Source: patent US20250327023A1, “TAURINE SUPPLEMENTED CELL CULTURE MEDIUM AND METHODS OF USE” (Regeneron Pharmaceuticals, Inc., priority 2015, published 2025)

Legend:
Format in all cases: cell-based, Chinese hamster
[1] = system: monoclonal antibody (Ab1) producing cell line derived from CHO-K1; assay: High-throughput shake flask culture, 17 days, antibody titer (Example 1A); conditions: 1 mM taurine at day 0
Protocol: Example 1A—High-Throughput Shake Flask Culture: 250 mL shake flasks were inoculated from a seed culture of a monoclonal antibody (Abl) producing cell line derived from CHO-K1. The inoculated cells were grown at 35.5° C. for seventeen days and fed glucose and other supplemental nutrients as needed. Cells were grown in chemically defined (hydrolysate-free and serum-free) base media. Each culture flask was either unsupplemented (Flask 1a), or supplemented with 1 mM taurine at day 0 (Flask 1 b).

[2] = system: monoclonal antibody (Ab2) producing cell line derived from CHO-K1; assay: Benchtop-scale 2L bioreactor culture, 14 days, antibody titer (Example 1B), Ab2; conditions: about 1 mM taurine on day 0, day 14; for Ab2 approximate titer increase relative to baseline: Bioreactor 2b vs 2a
Protocol: (§1) Example 1B—Benchtop-Scale Bioreactors: In a similar example, yet on a larger scale of production, 2L bioreactors were inoculated from a seed culture of a monoclonal antibody (Ab2, Ab3 or Ab4) producing cell line derived from CHO-K1. The inoculated cultures were grown at a temperature of 35.5° C., DO set point of 40.4% and air sparge of 22 ccm for 14 days. […] Glucose, antifoam and basal feed were supplied to the bioreactors as needed. Cultures were grown in unsupplemented medium (Bioreactor 2a, 3a, 4a) or grown in about 1 mM taurine-supplemented medium (Ab2 and Ab3) or about 3 mM taurine-supplemented medium (Ab4), added on day 0 of production (Bioreactors 2b, 3b and 4b, respectively).

[3] = system: monoclonal antibody (Ab3) producing cell line derived from CHO-K1; assay: Benchtop-scale 2L bioreactor culture, 14 days, antibody titer (Example 1B), Ab3; conditions: about 1 mM taurine on day 0; for Ab3 approximate titer increase at day 6 compared to unsupplemented medium collected on same day / Ab3 approximate titer increase at day 9 compared to unsupplemented medium collected on same day / Ab3 approximate titer increase relative to baseline: Bioreactor 3b vs 3a
Protocol: as §1

[4] = system: monoclonal antibody (Ab4) producing cell line derived from CHO-K1; assay: Benchtop-scale 2L bioreactor culture, 14 days, antibody titer (Example 1B), Ab4; conditions: about 3 mM taurine on day 0, day 14; for Ab4 approximate titer increase relative to baseline: Bioreactor 4b vs 4a
Protocol: as §1

[5] = system: monoclonal antibody (Ab1) producing cell line derived from CHO-K1; assay: Shake flask culture with varying taurine concentrations, 14 days, antibody titer (Example 2); conditions: for Ab1 % titer increase vs unsupplemented: day 14
Protocol: Consistency of the protein titer was tested by varying the amount of taurine added to the culture at production day 0. 250 mL shake flasks were inoculated from a seed culture of a monoclonal antibody (Ab1) producing cell line derived from CHO-K1. The inoculated cells were grown at 35.5° C. for fourteen days and fed glucose and other supplemental nutrients as needed. Cells were grown in chemically defined (hydrolysate-free and serum-free) base media. Each culture contained either no taurine (unsupplemented) or taurine at 0.1 mM, 0.3 mM, 0.5 mM, 0,7 mM, 1 mM, 3 mM, 5 mM, 7,5 mM or 10 mM concentrations.

Ab1-producing CHO cells [6] = assay: Shake flask culture, taurine in seed train expansion and/or production phase, 17 days, antibody titer (Example 3A); conditions: day 17
Protocol: The benefits of adding taurine to the culture during the expansion seed train phase were assessed in the high-throughput shake flask model. In flask 6a (Table 6), the Ab1-producing CHO cells were thawed in chemically defined (hydrolysate-free and serum-free) base media supplemented with 1 mM taurine. Taurine concentration of basal medium was maintained at 1 mM throughout the expansion phase. During production, the culture basal medium was supplemented with 1 mM taurine on day 0. Glucose and nutrient basal feed were supplied as needed during the 17 day production. Flask 6b cells grew in taurine-free (unsupplemented) chemically defined (hydrolysate-free and serum-free) basal medium throughout the seed train expansion phase. At day 0 of production, the culture basal medium was supplemented with 1 mM taurine. For the 17 day production, glucose and nutrient basal feeds were supplied as needed.

Ab1-producing CHO cells [7] = assay: Shake flask culture, varying taurine feeding schedules during production phase, antibody titer (Example 3B)
Protocol: Example 3B: Varying Taurine Feeding Schedules during Production Phase: To determine whether varying standard feeding schedules of taurine had any effect on the protein titer for taurine-supplemented cultures, additional experiments were conducted in analogous shake flask cultures growing Ab1-producing CHO cells. The cells were subjected to varying culture conditions similar to Example 2, where the feeding schedule was the same as before, glucose/nutrient basal feed was added as needed. Ab1-producing cultures were supplemented with a total of 5 mM taurine Similar productivity (7.1 g/L, 6.8 g/L and 7.0 g/L) is observed in varying taurine feeding schedules. Titer values as compared in this experiment are not statistically different (p>0.1) (see Table 7).

Ab1-producing CHO cells [8] = assay: Ammonia by-product in shake flask culture (Example 4); conditions: taurine supplemented medium
Protocol: […] The cells were subjected to varying culture conditions similar to above where glucose/nutrient base feed was added as needed.

[9] = 0.1 mM taurine at day 0, shake flask 5b
[10] = 0.3 mM taurine at day 0, shake flask 5c
[11] = 0.5 mM taurine at day 0, shake flask 5d
[12] = 0.7 mM taurine at day 0, shake flask 5e
[13] = 1 mM taurine at day 0, shake flask 5f
[14] = 5 mM taurine at day 0, shake flask 5g
[15] = 7.5 mM taurine at day 0, shake flask 5h
[16] = 10 mM taurine at day 0, shake flask 5i

Compound: NCCS(=O)(=O)O [Taurine, 2-aminoethanesulfonic acid]
- Abl Titer (average 17-day antibody titer) ([1]; 250 mL shake flask 1b, harvested day 17): 7.9 g/L
- Approximate titer increase relative to baseline ([1]; day 17, Flask 1b vs unsupplemented Flask 1a): 8%
- Ab2 Titer (average 14 day antibody titer) ([2]; Bioreactor 2b): 8 g/L
- Ab2 approximate titer increase relative to baseline [2]: 24%
- Ab2 approximate titer increase relative to baseline ([2]; listed as taurine): 24%
- Ab3 Titer at day 6 ([3]; Bioreactor 3b, day 6): 1.9 g/L
- Ab3 Titer at day 9 ([3]; Bioreactor 3b, day 9): 5.3 g/L
- Ab3 Titer (average 14 day antibody titer) ([3]; Bioreactor 3b, day 14): 7.3 g/L
- Ab3 approximate titer increase at day 6 compared to unsupplemented medium collected on same day ([3]; day 6): 12%
- Ab3 approximate titer increase at day 6 compared to unsupplemented medium collected on same day ([3]; day 6, listed as taurine): 12%
- Ab3 approximate titer increase at day 9 compared to unsupplemented medium collected on same day ([3]; day 9): 29%
- Ab3 approximate titer increase at day 9 compared to unsupplemented medium collected on same day ([3]; day 9, listed as taurine): 29%
- Ab3 approximate titer increase relative to baseline ([3]; day 14): 11%
- Ab3 approximate titer increase relative to baseline ([3]; day 14, listed as taurine): 11%
- Ab4 Titer (average 14 day antibody titer) ([4]; Bioreactor 4b): 5.3 g/L
- Ab4 approximate titer increase relative to baseline [4]: 20%
- Ab4 approximate titer increase relative to baseline ([4]; listed as taurine): 20%
- Ab1 Titer (average 14-day) [5, 9]: 6.7 g/L
- Ab1 % titer increase vs unsupplemented [5, 9]: 3%
- Ab1 Titer (average 14-day) [5, 10]: 6.8 g/L
- Ab1 % titer increase vs unsupplemented [5, 10]: 5%
- Ab1 Titer (average 14-day) [5, 11]: 6.9 g/L
- Ab1 % titer increase vs unsupplemented [5, 11]: 6%
- Ab1 Titer (average 14-day) [5, 12]: 7.0 g/L
- Ab1 % titer increase vs unsupplemented [5, 12]: 8%
- Ab1 Titer (average 14-day) [5, 13]: 7.0 g/L
- Ab1 % titer increase vs unsupplemented [5, 13]: 8%
- Ab1 Titer (average 14-day) [5, 14]: 7.1 g/L
- Ab1 % titer increase vs unsupplemented [5, 14]: 9%
- Ab1 Titer (average 14-day) [5, 15]: 7.1 g/L
- Ab1 % titer increase vs unsupplemented [5, 15]: 9%
- Ab1 Titer (average 14-day) [5, 16]: 7.1 g/L
- Ab1 % titer increase vs unsupplemented [5, 16]: 9%
- Ab1 Titer (average 17-day) (Ab1-producing CHO cells [6]; 1 mM taurine in Only Production Phase, shake flask 6b): 7.8 g/L
- Ab1 Titer (average 17-day) (Ab1-producing CHO cells [6]; 1 mM taurine in Seed Train and Production Phases, shake flask 6a): 7.7 g/L
- Ab1 Day 14 Titer (Ab1-producing CHO cells [7]; taurine schedule: 1 mM day 0, 2 mM days 7, 10 (5 mM total)): 7.0 g/L
- Ab1 Day 14 Titer (Ab1-producing CHO cells [7]; taurine schedule: 1 mM days 0, 3, 5, 7, 10 (5 mM total)): 6.8 g/L
- Ab1 Day 14 Titer (Ab1-producing CHO cells [7]; taurine schedule: 5 mM day 0): 7.1 g/L
- Abl Ammonia (average 17-day ammonia) (Ab1-producing CHO cells [8]): 1.73 mM″
- Ammonia decrease compared to unsupplemented medium (Ab1-producing CHO cells [8]; listed as taurine): 32%
